Experimental data published in PMC12040169 (PLOS Biology, 2025).

test: in vitro; settings: human, hela cells, % viability

| Compound | viability at 28.5 h, 10 µM [%] |
| --- | --- |
| COc1ccc(CCNC(=O)c2cc(-c3ccc(C)o3)nc3ccccc23)cc1OC [CBK265486] | 117 |
| CC(Oc1ccc(Cl)cc1Cl)C(=O)NCCc1cccc(Cl)c1 (stereo not drawn) [CBK265489] | 84.2 |
| O=C(/C=C/c1c(Cl)cccc1Cl)Nc1ccc(S(=O)(=O)Nc2ncccn2)cc1 [CBK265490] | 98.8 |
| Cc1ccc(C)c(C(=O)C2=C(O)C(=O)N(CCCN3CCOCC3)C2c2ccncc2)c1 (stereo not drawn) [CBK265492] | 103 |
| O=C(CSc1ccccc1[N+](=O)[O-])Oc1ccccc1 [CBK265501] | 106 |
| O=S(=O)(c1ccc(-c2csc(-c3ccccc3)n2)cc1)N1CCCCCC1 [CBK265504] | 84.9 |
| Cc1nc2ccccc2c2c1C(=O)N(c1cccc(C(=O)OCC(=O)c3ccccc3Cl)c1)C2=O [CBK265505] | 98.5 |
| CC(Oc1ccc(F)cc1)C(=O)NCCN1CCOCC1 (stereo not drawn) [CBK265508] | 99.4 |
| COc1ccc(-c2cc(C(=O)OCC(=O)c3cccc4ccccc34)c3ccccc3n2)cc1 [CBK265513] | 96.7 |
| COc1ccc(N2C(=O)c3ccc(C(=O)OCC(=O)c4ccccc4Cl)cc3C2=O)c([N+](=O)[O-])c1 [CBK265514] | 83.7 |
| Cc1ccc(C(=O)C(OC(=O)c2cc(O)nc3ccccc23)c2ccccc2)cc1C (stereo not drawn) [CBK265515] | 90.9 |
| O=C(CCCc1ccccc1)Nc1ccccc1C(=O)O [CBK265516] | 97.4 |
| O=C(NCCc1ccccc1)c1c(NC(=O)C2COc3ccccc3O2)sc2c1CCCC2 (stereo not drawn) [CBK265522] | 89.8 |
| Cc1c(NC(=O)CCCC(=O)O)cccc1C(=O)O [CBK265525] | 95 |
| CCCCOC(=O)c1ccc(N2C(=O)CC(N3CCN(c4ccc(F)cc4)CC3)C2=O)cc1 (stereo not drawn) [CBK265527] | 94.6 |
| c1ccc(-n2ncc3c(NCc4cccnc4)ncnc32)cc1 [CBK265528] | 85.2 |
| CCCC12CN3CC(CCC)(CN(C1)C3C(O)C(O)C(O)CO)C2=O (stereo not drawn) [CBK265529] | 88.3 |
| CCCC12CN3CC(CCC)(CN(C1)C3c1ccc(O)c(OC)c1)C2=O (stereo not drawn) [CBK265531] | 89 |
| COc1cc(/N=C(\N)Nc2nc(=O)cc(CSc3ccc(C)cc3)[nH]2)cc(OC)c1 [CBK265532] | 83.4 |

| Compound | viability at 28.5 h, 10 µM [%] |
| --- | --- |
| CC1(CC(=O)Nc2ccccc2)NC(=S)N(c2ccccc2)N1 (stereo not drawn) [CBK265534] | 105 |
| CCOC(=O)c1c(NC(=O)CN2CCN(c3ccc(F)cc3)CC2)sc2c1CCCC2 [CBK265536] | 88.3 |
| O=C1N(CN2CCN(C(c3ccccc3)c3ccccc3)CC2)c2ccccc2C12OCCCO2 [CBK265538] | 85.6 |
| O=c1ccc(O)nn1CN1CCN(Cc2ccccc2)CC1 [CBK265539] | 91.5 |
| COc1cccc(C(=O)Oc2ccc3c(=O)c(-c4nc5ccccc5s4)c(C)oc3c2)c1 [CBK265540] | 103 |
| NC(=O)c1c(NC(=S)NC(=O)c2ccccc2Br)sc2c1CCC2 [CBK265543] | 89.3 |
| FC(F)(F)C1(NC2(C(Cl)(Cl)Cl)Oc3ccccc3O2)Oc2ccccc2O1 [CBK265544] | 90.5 |
| COc1ccc(/C=C2/SC(=O)N(CCNC3=NS(=O)(=O)c4ccccc43)C2=O)cc1 [CBK265545] | 83.4 |
| CCC12CN3CC(CC)(CN(C1)C3c1c(C)[nH]c3ccccc13)C2=O (stereo not drawn) [CBK265547] | 89.4 |
| COc1ccc(S(=O)(=O)N2CCOCC2)cc1C(=O)Nc1ccc2c(c1)OCO2 [CBK265548] | 102 |
| O=C1N/C(=N/c2cccc(O)c2)S/C1=C1\C(=O)Nc2ccccc21 [CBK265549] | 99.6 |
| O=C(NC(Cc1ccccc1)N1C(=O)c2ccccc2C1=O)N1CCCc2ccccc21 (stereo not drawn) [CBK265551] | 111 |
| O=C(O)C1CC(=O)N(CCc2ccccc2)/C(=N/CCc2ccccc2)S1 (stereo not drawn) [CBK265558] | 89.2 |
| Cc1nnc(SCc2ccc(CSc3nnc(C)n3N)cc2)n1N [CBK265561] | 106 |
| Cc1ccc(NC(=O)COC(=O)CCc2c[nH]c(O)n2)cc1 [CBK265562] | 89.9 |
| Cc1ccc(NC(=O)CCSc2nnc3ccccn23)cc1 [CBK265563] | 93.7 |
| COc1ccc(CCN2C(=O)/C(=C\c3c(NCCO)nc4c(C)cccn4c3=O)SC2=S)cc1 [CBK265566] | 79.9 |
| Cc1cccc(-n2ncc3c2ncn2c(COc4ccccc4C)nnc32)c1 [CBK265567] | 86.2 |
| CC(C)(C)NS(=O)(=O)c1cccc2nonc12 [CBK265569] | 115 |

| Compound | viability at 28.5 h, 10 µM [%] |
| --- | --- |
| O=C(O)CN1C(=O)/C(=C2/C(=O)N(Cc3ccccc3Cl)c3ccccc32)SC1=S [CBK265570] | 95.6 |
| CC1CCN(S(=O)(=O)c2ccc(NC(=O)CCN3C(=O)c4ccccc4C3=O)cc2)CC1 [CBK265572] | 98.8 |
| CCOC(=O)c1sc(NCCOc2cccc(C)c2)nc1C [CBK265574] | 85.2 |
| CCOC(=O)CNC(=O)C1Cc2ccccc2CN1S(=O)(=O)c1cccs1 (stereo not drawn) [CBK265575] | 103 |
| O=C(CN1C(=O)c2ccc([N+](=O)[O-])cc2C1=O)Nc1cccc2c1C(=O)N(c1ccccc1)C2=O [CBK265576] | 84.7 |
| CCOc1ccc(-n2c(N)c(C(=O)NCc3ccco3)sc2=S)cc1 [CBK265578] | 96.3 |
| CC(Sc1ccccn1)C(=O)Nc1ccc(S(N)(=O)=O)cc1 (stereo not drawn) [CBK265579] | 97.1 |
| C/N=C1/SC(CC(=O)Nc2cccc(C(=O)O)c2)C(=O)N1C (stereo not drawn) [CBK265581] | 99.8 |
| O=C(O)c1cccnc1SC1CC(=O)N(c2ccc(F)cc2)C1=O (stereo not drawn) [CBK265582] | 110 |
| COc1c(C)cccc1C(=O)NC(=S)Nc1sc2c(c1C(N)=O)CCC2 [CBK265587] | 84.4 |
| O=C(OCC#CCSc1nnc(-c2ccccc2)o1)c1ccc([N+](=O)[O-])cc1 [CBK265588] | 107 |
| Cc1ccc(S(=O)(=O)c2cc3c(=O)n4ccccc4nc3n(CCCN3CCOCC3)c2=N)cc1 [CBK265590] | 101 |
| O=C(CSc1ncn(-c2ccccc2)n1)Nc1ccccc1Cl [CBK265593] | 104 |
| COc1cc(/C=C2\C=C(c3ccc(-c4ccccc4)cc3)OC2=O)ccc1O [CBK265594] | 88.5 |
| Cc1cc2c(cc1C)NC(CC(=O)Nc1ccc(N(C)C)cc1)C(=O)N2 (stereo not drawn) [CBK265595] | 85.8 |
| COc1cc(/C=C2/SC(=S)N(CC(=O)O)C2=O)cc(Br)c1OCc1ccccn1 [CBK265598] | 115 |
| Cc1cc(C)nc(NC(=O)C(C)Oc2ccc(Cl)cc2Cl)n1 (stereo not drawn) [CBK265600] | 90.4 |
| O=C1N/C(=C/c2cccs2)C(=O)N1Cc1ccccc1F [CBK265601] | 109 |
| CC(C(=O)Nc1sc2c(c1C(=O)NCc1ccco1)CCCC2)N1C(=O)c2ccccc2C1=O (stereo not drawn) [CBK265603] | 86.6 |

same assay, conditions: human, hela cells, % viability, bulk resorufin, single well

| Compound | viability at 28.5 h, 10 µM [%] |
| --- | --- |
| CCOc1cccc(N2C(=O)NC(=O)/C(=C/NCCc3c[nH]c4ccccc34)C2=O)c1 [CBK265541] | 106 |
| O=C1NC(=S)N(Cc2ccco2)C(=O)/C1=C\c1cn(CCOc2ccc(F)cc2)c2ccccc12 [CBK265573] | 80.9 |
| NS(=O)(=O)c1ccc(N/C=C2\C(=O)NC(=O)N(Cc3ccccc3Cl)C2=O)cc1 [CBK265586] | 92.3 |
